Measured values as given in US20160159778A1, “NOVEL UREIDO DERIVATIVES OF NAPHTHALENESULFONIC ACIDS” (NeED PHARMACEUTICALS S.r.l., priority 2013, published 2016).

Columns and labels:
Assay type in all cases: cell-based
[1] = tested on: HIV-1 IIIB (strain using CXCR4); experiment: HIV-1 IIIB replication in PHA-activated peripheral blood mononuclear cells (p24 in supernatant); settings: for inhibition of replication of HIV-1 IIIB: PBMC
Description: (§1) The compound (VII) has been tested for its ability to modulate the viral replication of HIV-1, both of a strain using CXCR4 (IIIB) and a strain using CCR5 (Bal) as co-receptor, in addition to the primary receptor CD4.
(§2) For the in-vitro infections primary cells have been used, specifically peripheral blood mononuclear cells from healthy donors pre-activated for 48 hours through a mitogenic stimulus (phytohemagglutinin) to allow for the infection by HIV-1. The cells have been incubated with IIIB and Bal viruses in absence or in presence of scalar concentrations of compound (VII) for 30 minutes at 37° C., then they have been washed to remove the excess virus, plated in triplicate in culture microplates and the compound VII has been re-added to the wells, in the test concentrations. The control culture has been set up in presence of dimethylsulfoxyde (DMSO), the compound in which the compound VII has been dissolved, in order to more correctly evaluate a net effect of the compound. The viral replication has been evaluated by measuring the structural protein of HIV-1 p24 (expressed in ng/ml) by an immune-enzymatic test carried out on the culture supernatants harvested on days 4 and 7 post-infection.
(§3) The graphs show the mean values of the culture triplicate with the standard deviation on post-infection days 4 and 7.

[2] = tested on: HIV-1 Bal (strain using CCR5); experiment: HIV-1 Bal replication in PHA-activated peripheral blood mononuclear cells (p24 in supernatant); settings: PBMC
Description: as §1, §2, §3

[3] = tested on: fusion mediated by gp120 of HIV-1 using CXCR4; experiment: gp120-mediated cell-cell fusion assay, target cells with CD4 and CXCR4 (colorimetric, OD 570 nm)
Description: (§4) In order to evaluate on which step of the complex HIV-1 replication cycle the compound VII acts according to the present invention, a sophisticated method, schematized in FIG. 2, has been used, specifically only focusing on the entry step of HIV-1 in target cells.
(§5) Briefly, a colorimetric reaction is developed when two populations of properly engineered cells meet and in particular a donor, carrying on the surface the glycoprotein of HIV-1 gp120 and a target, together with the primary receptor CD4 and with one of the co-receptors, CXCR4 or CCR5. In this case there is a fusion of the cells and the polymerase T7 can pass from the donor cell to the target one in which it triggers the transcription of beta-galactosidase with subsequent protein translation. Thus the latter is able to perform its enzymatic action in the presence of the convenient substrate (CPRG, chlorophenol red-3-D galactopyranoside) developing a colorimetric reaction measured by detection of optical density (OD) at 570 nm.
(§6) In the first one, the target cells are mouse fibroblasts (3T3 in FIG. 3 A/B), on the contrary in the second one the target cells are human epithelial cells (HeLa, in FIG. 3 C/D). The graphs show the mean values of the culture triplicate with the standard deviation.

[4] = tested on: fusion mediated by gp120 of HIV-1 using CCR5; experiment: gp120-mediated cell-cell fusion assay, target cells with CD4 and CCR5 (colorimetric, OD 570 nm); settings: target cells 3T3 mouse fibroblasts and HeLa human epithelial cells (FIG. 3 B/D)
Description: as §4, §5, §6

[5] = 0.1 μM, p24 on days 4 and 7 post-infection (FIG. 1C/D)
[6] = 1 μM, p24 on days 4 and 7 post-infection (FIG. 1C/D)
[7] = 30, 10 and 3 μM, p24 on days 4 and 7 post-infection (FIG. 1A/B)

Structure (SMILES): Cn1cc(NC(=O)c2cc3cc(NC(=O)Nc4ccc5c(c4)cc(C(=O)Nc4cc(C(=O)Nc6ccc7cc(S(=O)(=O)O)cc(S(=O)(=O)O)c7c6)n(C)c4)n5C)ccc3n2C)cc1C(=O)Nc1ccc2cc(S(=O)(=O)O)cc(S(=O)(=O)O)c2c1 [compound (VII)]
- inhibition of replication of HIV-1 IIIB [1, 5]: not more effective
- inhibition of replication of HIV-1 IIIB [1, 6]: inhibited completely
- inhibition of replication of HIV-1 IIIB [1, 7]: completely inhibited
- relative effectiveness in replication inhibition, CXCR4-using versus CCR5-using virus ([1]; comparison of IIIB with Bal at 1 μM): higher effectiveness of the compound against viruses using the chemokine receptor CXCR4
- inhibition of replication of HIV-1 Bal [2, 5]: not more effective
- inhibition of replication of HIV-1 Bal [2, 6]: almost totally lost the inhibitory ability
- inhibition of replication of HIV-1 Bal [2, 7]: completely inhibited
- relative potency in fusion inhibition, HIV-1 using CXCR4 versus HIV-1 using CCR5 ([3]; comparison of CXCR4 (the latter) with CCR5): more potent against the latter
- inhibition of fusion mediated by gp120 of HIV-1 using CXCR4 ([3]; target cells 3T3 mouse fibroblasts and HeLa human epithelial cells (FIG. 3 A/C)): able to inhibit, in a way depending on the concentration
- inhibition of fusion mediated by gp120 of HIV-1 using CCR5 [4]: able to inhibit, in a way depending on the concentration
